pIC50: −log10 of the molar value. Like-named read-outs stand apart in the source and are kept apart here.
Assays:
[1] = biological target: T1, TPM3-TRKA fusion protein (Homo sapiens, UniProt P04629); experiment: TPM3-TRKA fusion protein levels in KM12 cells (Western blot); format: cell-based; conditions: for percent degradation of TPM3-TRKA protein at 0.01 µM: read-out: Degradation (at 10 nM); for TRKA protein levels: dose range (FIG. 8); for relative effectiveness at degrading TRKA: 0.4-30 nM, 8-16 hours, comparison of enantiomers (FIG. 28A-28B)
T1 construct: The resulted chimeric proteins always retain the kinase domain of TRK proteins; TPM3 (fusion partner, N-terminal part of tropomyosin alpha-3, P06753); endogenous in cells; host or cells: KM12 colon cancer cells; the other entry of the earlier key: TPM3 (P06753, Tropomyosin alpha-3 chain)
Outline: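 TPM3-TRKA levels were assessed by Western blot with chemiluminescent detection and band densitometry, after SDS-PAGE of BCA-normalized RIPA lysates. Before lysis, KM12 cells received DMSO, compounds or matched control compounds at concentrations including 0.1, 1, 10 and 100 nM and 0.4–30 nM. Exposures lasted 4 h, 8–16 h or 16 h.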

[2] = biological target: T2, wildtype TRKA protein (Homo sapiens, UniProt P04629); experiment: Wildtype TRKA protein levels in HEL erythroleukemia cells (Western blot); format: cell-based; conditions: for TRKA protein levels: dose range (FIG. 8)
T2 construct: wildtype TRKA protein expressed by HEL cells; endogenous in cells; host or cells: HEL erythroleukemia cells
Protocol: KM12 or HEL cells were treated with a dose range of compound TR-123 or TR-123-negative. The latter lost binding to cereblon (CRBN) due to a chemical modification.
KM12 or HEL cells were treated with a single dose of compound TR-123 or combination with MG-132, Bortezomib, MLN4924 or Pomalidomide.
HEL cells were treated with heterobifunctional compounds at 10 nM or 100 nM for 16 hours.
KM12, H358, HEL, SU-DHL-1 and other cells were cultured at 37° C. with 5% CO2 in RPMI 1640 Medium supplemented with 10% fetal bovine serum. Cells were authenticated using the short tandem repeat (STR) assays. Mycoplasma test results were negative. Stable cell lines were established by lentivirus transduction, selected and maintained in medium containing 1 μg/mL puromycin (Beyotime Biotechnology).
Cultured cells were washed with cold PBS once and lysed in cold RIPA buffer supplemented with protease inhibitors and phosphatase inhibitors (Beyotime Biotechnology). The solutions were then incubated at 4° C. for 30 minutes with gentle agitation to fully lyse cells. For tumor tissues, tumors were cut into small pieces, milled with cold RIPA buffer using a mechanical homogenizer and lysed for 1 hour at 4° C. Cell lysates were centrifuged at 13,000 rpm for 10 minutes at 4° C. and pellets were discarded. Total protein concentrations in the lysates were determined by BCA assays (Beyotime Biotechnology). Cell lysates were mixed with Laemmli loading buffer to 1× and heated at 99° C. for 5 min. Proteins were resolved on SDS-PAGE and visualized by chemiluminescence. Images were taken by a ChemiDoc MP Imaging system (Bio-Rad). Protein bands were quantitated using the software provided by Bio-Rad.

[3] = Mouse pharmacokinetic (PK) studies, plasma concentrations; format: in vivo, mice; conditions: for bioavailability: mouse, plasma, oral, male ICR mice, single dose 10 mg/kg orally or 1 mg/kg intravenously (FIG. 23A)
Protocol: A single […] intraperitoneal injection of compound TR-123 was evaluated. Plasma concentrations of TR-123 reported at each of the 6 time points (30 min, 1 h, […], 4 h, 8 h, and 12 h post compound administration) are the average values from 3 test animals.
A single 2 mg/kg intravenous injection and 20 mg/kg oral gavage of TR-198 were evaluated in mice. Plasma concentrations of TR-198 reported at each of the 6 time points (5 min, 30 min, 2 h, 4 h, 8 h, and 12 h post compound administration via IV, 30 min, 1 h, 2 h, 4 h, 8 h, and 12 h post compound administration via p.o.) are the average values from 3 test animals.
Plasma concentrations of TR-231 and TR-275 were determined following a single dose of 10 mg/kg orally or 1 mg/kg intravenously in male ICR mice (FIG. 23A). Plasma concentrations of TR-231 or TR-275 are examined at indicated different time points post compound administration. The reported values are the average values from 3 test animals.
Standard PK studies were conducted using male Swiss Albino mice by Sai Life Sciences or using male ICR mice by Cullgen. Plasma exposures of TR-123 (10 mg/kg, intraperitoneal injection), TR-198 (20 mg/kg, oral gavage, or 2 mg/kg, intravenous injection), TR-231 and TR-275 (10 mg/kg, oral gavage, or 1 mg/kg, intravenous injection) were determined. Plasma concentrations were reported at indicated time points as the average values derived from three experimental animals. Error bars represent standard deviations.

[4] = tested on: KM12 cells; experiment: KM12 cell viability (CellTiter-Glo); format: cell-based; conditions: Homo sapiens, 72 h; KM12 cell viability, CellTiter-Glo, three days treatment; read-out: IC50
Outline: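 Three-day exposure of KM12 cells (5000/well, RPMI 1640 with 10% FBS, 37 °C, 5% CO2) to compound dilution series, 3-fold over 8 or 11 points (top 1000 nM in the 8-point format) or 2-fold over 12. CellTiter-Glo readout, with IC50 fitted by nonlinear least-squares regression.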

[5] = 16 h, TPM3-TRKA degradation in KM12 cells at 10 nM compound, category of percentage degradation

T1 sequence (P04629 with tags, fused parts or gaps): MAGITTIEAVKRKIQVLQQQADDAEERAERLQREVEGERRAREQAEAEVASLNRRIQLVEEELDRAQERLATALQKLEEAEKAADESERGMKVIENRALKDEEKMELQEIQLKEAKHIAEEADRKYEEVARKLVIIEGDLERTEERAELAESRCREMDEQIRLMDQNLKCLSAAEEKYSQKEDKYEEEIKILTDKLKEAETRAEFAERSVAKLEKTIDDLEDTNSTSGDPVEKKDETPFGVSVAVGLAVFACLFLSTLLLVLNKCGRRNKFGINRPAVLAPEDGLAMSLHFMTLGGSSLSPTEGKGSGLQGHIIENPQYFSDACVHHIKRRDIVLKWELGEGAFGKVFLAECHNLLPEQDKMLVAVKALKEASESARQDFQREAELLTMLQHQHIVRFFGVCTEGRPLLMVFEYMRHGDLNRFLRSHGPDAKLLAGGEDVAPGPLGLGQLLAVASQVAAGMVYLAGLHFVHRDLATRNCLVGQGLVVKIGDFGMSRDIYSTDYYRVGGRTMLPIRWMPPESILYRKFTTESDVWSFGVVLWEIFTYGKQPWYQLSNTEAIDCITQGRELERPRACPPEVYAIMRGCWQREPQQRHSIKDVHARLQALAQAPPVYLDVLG
T2 sequence (P04629 33-796): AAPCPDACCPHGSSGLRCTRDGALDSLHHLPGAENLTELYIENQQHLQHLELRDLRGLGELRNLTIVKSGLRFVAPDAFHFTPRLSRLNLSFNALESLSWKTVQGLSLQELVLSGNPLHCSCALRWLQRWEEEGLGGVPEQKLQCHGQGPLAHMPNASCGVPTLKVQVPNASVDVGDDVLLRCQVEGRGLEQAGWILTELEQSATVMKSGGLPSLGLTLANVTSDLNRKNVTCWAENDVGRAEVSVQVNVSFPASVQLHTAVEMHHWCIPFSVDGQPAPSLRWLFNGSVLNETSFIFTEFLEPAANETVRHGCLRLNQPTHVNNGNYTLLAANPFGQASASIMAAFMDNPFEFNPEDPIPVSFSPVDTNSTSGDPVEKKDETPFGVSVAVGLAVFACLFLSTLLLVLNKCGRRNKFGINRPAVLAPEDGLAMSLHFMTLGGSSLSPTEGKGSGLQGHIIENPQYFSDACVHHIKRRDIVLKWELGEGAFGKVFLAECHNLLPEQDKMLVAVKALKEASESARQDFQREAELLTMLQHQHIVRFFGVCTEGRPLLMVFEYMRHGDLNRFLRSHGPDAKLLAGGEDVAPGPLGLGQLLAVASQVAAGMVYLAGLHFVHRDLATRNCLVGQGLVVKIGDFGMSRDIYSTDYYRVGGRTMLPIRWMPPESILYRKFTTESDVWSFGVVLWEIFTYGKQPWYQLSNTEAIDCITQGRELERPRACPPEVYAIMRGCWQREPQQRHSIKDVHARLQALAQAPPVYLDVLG

O=C1CCC(N2C(=O)c3ccc(NCC(=O)N4CCN(c5cccc(-c6cnc7ccc(N8CCC[C@@H]8c8cccc(F)c8)nn67)n5)CC4)cc3C2=O)C(=O)N1 (stereo partly drawn) [TR-123, 2-(2,6-dioxopiperidin-3-yl)-5-((2-(4-(6-(6-((R)-2-(3-fluorophenyl)pyrrolidin-1-yl)imidazo[1,2-b]pyridazin-3-yl)pyridin-2-yl)piperazin-1-yl)-2-oxoethyl)amino) isoindoline-1,3-dione]
percent degradation of TPM3-TRKA protein at 0.01 µM [1, 5]: > 80%
TRKA protein levels ([1]; KM12 cells): reduced TRKA protein levels in a concentration-dependent manner
TRKA degradation in combination with MG-132, Bortezomib, MLN4924 or Pomalidomide ([1]; KM12 cells, single dose (FIG. 9)): compromised
TRKA protein levels [2]: reduced TRKA protein levels in a concentration-dependent manner
TRKA degradation in combination with MG-132, Bortezomib, MLN4924 or Pomalidomide ([2]; single dose (FIG. 9)): compromised
plasma exposure ([3]; single 20 mg/kg intraperitoneal injection, over 12 hours, average of 3 animals (FIG. 11)): good plasma exposure

CN1C(=O)CCC(N2C(=O)c3ccc(NCC(=O)N4CCN(c5cccc(-c6cnc7ccc(N8CCC[C@@H]8c8cccc(F)c8)nn67)n5)CC4)cc3C2=O)C1=O (stereo partly drawn) [TR-123-negative, 5-((2-(4-(6-(6-((R)-2-(3-fluorophenyl)pyrrolidin-1-yl)imidazo[1,2-b]pyridazin-3-yl)pyridin-2-yl)piperazin-1-yl)-2-oxoethyl)amino)-2-(1-methyl-2,6-dioxopiperidin-3-yl)isoindoline-1,3-dione]
TRKA protein levels ([1]; KM12 cells): had none or less effects on TRKA protein levels
TRKA protein levels [2]: had none or less effects on TRKA protein levels

O=C1CCC(N2C(=O)c3ccc(N4CC(CN5CCN(c6ccc(C(=O)Nc7n[nH]c8ccc(Cc9cc(F)cc(F)c9)cc78)c(NC7CCOCC7)c6)CC5)C4)cc3C2=O)C(=O)N1 (stereo not drawn) [TR-231]
pIC50 [4]: 8.52
percent degradation of TPM3-TRKA protein at 0.01 µM [1, 5]: > 80%
bioavailability [3]: ~48%

O=C1CCC(N2C(=O)c3ccc(N4CC(N5CCN(c6ccc(C(=O)Nc7n[nH]c8ccc(Cc9cc(F)cc(F)c9)cc78)c(NC7CCOCC7)c6)CC5)C4)cc3C2=O)C(=O)N1 (stereo not drawn) [TR-275, N-(5-(3,5-difluorobenzyl)-1H-indazol-3-yl)-4-(4-(1-(2-(2,6-dioxopiperidin-3-yl)-1,3-dioxoisoindolin-5-yl)azetidin-3-yl)piperazin-1-yl)-2-((tetrahydro-2H-pyran-4-yl)amino)benzamide]
pIC50 [4]: 8.05
percent degradation of TPM3-TRKA protein at 0.01 µM [1, 5]: 50 to 80%
bioavailability [3]: ~27%

O=C1CCC(N2Cc3cc(C4CN(C5CCN(c6ccc(C(=O)Nc7n[nH]c8ccc(Cc9cc(F)cc(F)c9)cc78)c(NC7CCOCC7)c6)CC5)C4)ccc3C2=O)C(=O)N1 (stereo not drawn) [TR-338, N-(5-(3,5-difluorobenzyl)-1H-indazol-3-yl)-4-(4-(3-(2-(2,6-dioxopiperidin-3-yl)-1-oxoisoindolin-5-yl)azetidin-1-yl)piperidin-1-yl)-2-((tetrahydro-2H-pyran-4-yl)amino)benzamide]
pIC50 [4]: 8.89
percent degradation of TPM3-TRKA protein at 0.01 µM ([1]; KM12, 16 h): > 80%

O=C1CCC(N2C(=O)c3ccc(C4CN(C5CCN(c6ccc(C(=O)Nc7n[nH]c8ccc(Cc9cc(F)cc(F)c9)cc78)c(NC7CCOCC7)c6)CC5)C4)cc3C2=O)C(=O)N1 (stereo not drawn) [TR-339, N-(5-(3,5-difluorobenzyl)-1H-indazol-3-yl)-4-(4-(3-(2-(2,6-dioxopiperidin-3-yl)-1,3-dioxoisoindolin-5-yl)azetidin-1-yl)piperidin-1-yl)-2-((tetrahydro-2H-pyran-4-yl)amino)benzamide]
pIC50 [4]: 8.09
percent degradation of TPM3-TRKA protein at 0.01 µM [1, 5]: > 80%

O=C1CCC(N2C(=O)c3ccc(N4CC5(C4)CN(C4CCN(c6ccc(C(=O)Nc7n[nH]c8ccc(Cc9cc(F)cc(F)c9)cc78)c(NC7CCOCC7)c6)CC4)C5)cc3C2=O)C(=O)N1 (stereo not drawn) [TR-340, N-(5-(3,5-difluorobenzyl)-1H-indazol-3-yl)-4-(4-(6-(2-(2,6-dioxopiperidin-3-yl)-1,3-dioxoisoindolin-5-yl)-2,6-diazaspiro[3.3]heptan-2-yl)piperidin-1-yl)-2-((tetrahydro-2H-pyran-4-yl)amino)benzamide]
pIC50 [4]: 8.12
percent degradation of TPM3-TRKA protein at 0.01 µM [1, 5]: > 80%

O=C1CC[C@H](N2C(=O)c3ccc(N4CC(CN5CCN(c6ccc(C(=O)Nc7n[nH]c8ccc(Cc9cc(F)cc(F)c9)cc78)c(NC7CCOCC7)c6)CC5)C4)cc3C2=O)C(=O)N1 [TR-341, (S)—N-(5-(3,5-difluorobenzyl)-1H-indazol-3-yl)-4-(4-((1-(2-(2,6-dioxopiperidin-3-yl)-1,3-dioxoisoindolin-5-yl)azetidin-3-yl)methyl)piperazin-1-yl)-2-((tetrahydro-2H-pyran-4-yl)amino)benzamide]
pIC50 [4]: 8.52
percent degradation of TPM3-TRKA protein at 0.01 µM [1, 5]: > 80%

O=C1CC[C@@H](N2C(=O)c3ccc(N4CC(CN5CCN(c6ccc(C(=O)Nc7n[nH]c8ccc(Cc9cc(F)cc(F)c9)cc78)c(NC7CCOCC7)c6)CC5)C4)cc3C2=O)C(=O)N1 [TR-342, (R)—N-(5-(3,5-difluorobenzyl)-1H-indazol-3-yl)-4-(4-((1-(2-(2,6-dioxopiperidin-3-yl)-1,3-dioxoisoindolin-5-yl)azetidin-3-yl)methyl)piperazin-1-yl)-2-((tetrahydro-2H-pyran-4-yl)amino)benzamide]
pIC50 [4]: 8.52
percent degradation of TPM3-TRKA protein at 0.01 µM [1, 5]: > 80%
relative effectiveness at degrading TRKA ([1]; KM12 cells): more effective at degrading TRKA at lower concentrations than TR-342

O=C1CC[C@H](N2C(=O)c3ccc(N4CC(N5CCN(c6ccc(C(=O)Nc7n[nH]c8ccc(Cc9cc(F)cc(F)c9)cc78)c(NC7CCOCC7)c6)CC5)C4)cc3C2=O)C(=O)N1 [TR-343, (S)—N-(5-(3,5-difluorobenzyl)-1H-indazol-3-yl)-4-(4-(1˜ (2-(2,6-dioxopiperidin-3-yl)-1,3-dioxoisoindolin-5-yl)azetidin-3-yl)piperazin-1-yl)-2-((tetrahydro-2H-pyran-4-yl)amino)benzamide]
pIC50 [4]: 8.05
percent degradation of TPM3-TRKA protein at 0.01 µM [1, 5]: > 80%
relative effectiveness at degrading TRKA ([1]; KM12 cells): more effective at degrading TRKA at lower concentrations than TR-344

O=C1CC[C@@H](N2C(=O)c3ccc(N4CC(N5CCN(c6ccc(C(=O)Nc7n[nH]c8ccc(Cc9cc(F)cc(F)c9)cc78)c(NC7CCOCC7)c6)CC5)C4)cc3C2=O)C(=O)N1 [TR-344, (R)—N—(S-(3,5-difluorobenzyl)-1H-indazol-3-yl)-4-(4-(1-(2-(2,6-dioxopiperidin-3-yl)-1,3-dioxoisoindolin-5-yl)azetidin-3-yl)piperazin-1-yl)-2-((tetrahydro-2H-pyran-4-yl)amino)benzamide]
pIC50 [4]: 8.05
percent degradation of TPM3-TRKA protein at 0.01 µM [1, 5]: > 80%
